Assay results: patent publication US20260250318A1, “COMPOSITIONS AND METHODS FOR CROSSING THE BLOOD BRAIN BARRIER” (VOYAGER THERAPEUTICS, INC., priority 2022, published 2026)

Experiments:
Details in all cases: synthetic library passage 3, intravenous, relative to wild-type AAV9
brain [1] = assay: NGS fold enrichment of synthetic library (passage 3) in BALB/c mice, first cross-species screen; format: in vivo
Procedure, shortened: (§1)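 Synthetic capsid library (passage 3) was given intravenously […] to NHPs aged 2-4 years and to BALB/c and C57Bl/6 mice (n=3 each, 6-8 weeks). After about 28 days in vivo, tissue RNA was RT-PCR amplified and NGS-sequenced; values are fold enrichment per variant relative to wild-type AAV9.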

brain [2] = assay: NGS fold enrichment of synthetic library (passage 3) in C57Bl/6 mice, first cross-species screen; format: in vivo
Procedure, shortened: as §1

[3] = system: brain, spinal cord, and DRG of the NHPs; assay: NGS fold enrichment of synthetic library (passage 3) in NHPs, first cross-species screen; format: in vivo, cynomolgus macaques (Macaca fascicularis)
Procedure, shortened: as §1

[4] = RNA from brain of BALB/c mice, NGS
[5] = RNA from brain of C57Bl/6 mice, NGS
[6] = RNA from spinal cord of NHPs, NGS

| Sequence | Fold enrichment over AAV9 in the brain of Mice (BALB/c) (brain [1]; RNA NGS, brain of BALB/c mice) | Fold enrichment over AAV9 in the brain of Mice (C57Bl/6) (brain [2]; RNA NGS, brain of C57Bl/6 mice) | Fold enrichment over AAV9 in the brain of NHPs ([3]; RNA NGS, brain of NHPs) | Fold enrichment over AAV9 in the spinal cord of NHPs ([3]; RNA NGS, spinal cord of NHPs) | Fold enrichment over AAV9 in the brain of Mice (BALB/c) (brain [1]; [4]) | Fold enrichment over AAV9 in the brain of Mice (C57Bl/6) (brain [2]; [5]) | Fold enrichment over AAV9 in the brain of NHPs ([3]; RNA from brain of NHPs, NGS) | Fold enrichment over AAV9 in the spinal cord of NHPs [3, 6] |
| --- | --- | --- | --- | --- | --- | --- | --- | --- |
| GSGIQSSYSQNQQT | 0.684 fold | 1.032 fold | 1.517 fold | 15.978 fold |  |  |  |  |
| GSGISSRNMQNQQT |  |  |  |  | 0.560 fold | 1.671 fold | 1.291 fold | 6.328 fold |
| GSGIVTKLGQNQQT |  |  |  |  | 0.242 fold | 0.599 fold | 1.174 fold | 10.571 fold |
| GSGKGHSAGQNQQT | 1.173 fold | 1.035 fold | 1.453 fold | 0.936 fold |  |  |  |  |
| GSGKNQQRPGLDQT | 0.385 fold | 0.583 fold | 1.089 fold | 1.557 fold |  |  |  |  |
| GSGKNQTPIPKGQT |  |  |  |  | 1.154 fold | 1.306 fold | 1.339 fold | 5.077 fold |
| GSGKVTKQSQNQQT | 1.035 fold | 0.928 fold | 1.095 fold | 0.000 fold |  |  |  |  |
| GSGLAHLGGQNQQT | 0.794 fold | 0.749 fold | 1.064 fold | 2.191 fold |  |  |  |  |
| GSGLALERSQNQQT |  |  |  |  | 0.096 fold | 0.618 fold | 1.311 fold | 0.486 fold |
| GSGLDYSQRQNQQT | 0.217 fold | 0.484 fold | 2.056 fold | 0.837 fold |  |  |  |  |
| GSGLGMSTGQNQQT | 0.660 fold | 0.458 fold | 3.110 fold | 5.499 fold |  |  |  |  |
| GSGLGRAPVQNQQT | 0.383 fold | 0.841 fold | 2.503 fold | 2.214 fold |  |  |  |  |
| GSGLIRTAAQNQQT | 0.998 fold | 0.808 fold | 1.822 fold | 8.339 fold |  |  |  |  |
| GSGLKPNVLQNQQT |  |  |  |  | 0.268 fold | 0.701 fold | 1.263 fold | 0.975 fold |
| GSGLKWSTLQNQQT | 2.442 fold | 1.134 fold | 1.556 fold | 0.000 fold |  |  |  |  |
| GSGLLHGKLQNQQT | 0.917 fold | 1.068 fold | 2.032 fold | 2.521 fold |  |  |  |  |
| GSGLLHRAQQNQQT | 0.646 fold | 1.583 fold | 1.569 fold | 0.724 fold |  |  |  |  |
| GSGLLPLSSQNQQT | 0.293 fold | 0.501 fold | 2.612 fold | 1.130 fold |  |  |  |  |
| GSGLLYHDQQNQQT | 0.107 fold | 0.405 fold | 1.565 fold | 2.760 fold |  |  |  |  |
| GSGLPDRNLQNQQT | 0.611 fold | 1.136 fold | 1.471 fold | 7.306 fold |  |  |  |  |

| Sequence | Fold enrichment over AAV9 in the brain of Mice (BALB/c) (brain [1]; RNA NGS, brain of BALB/c mice) | Fold enrichment over AAV9 in the brain of Mice (C57Bl/6) (brain [2]; RNA NGS, brain of C57Bl/6 mice) | Fold enrichment over AAV9 in the brain of NHPs ([3]; RNA NGS, brain of NHPs) | Fold enrichment over AAV9 in the spinal cord of NHPs ([3]; RNA NGS, spinal cord of NHPs) | Fold enrichment over AAV9 in the brain of Mice (BALB/c) (brain [1]; [4]) | Fold enrichment over AAV9 in the brain of Mice (C57Bl/6) (brain [2]; [5]) | Fold enrichment over AAV9 in the brain of NHPs ([3]; RNA from brain of NHPs, NGS) | Fold enrichment over AAV9 in the spinal cord of NHPs [3, 6] |
| --- | --- | --- | --- | --- | --- | --- | --- | --- |
| GSGLPVLSGQNQQT | 0.210 fold | 0.631 fold | 3.100 fold | 4.149 fold |  |  |  |  |
| GSGLRQTSQQNQQT | 0.705 fold | 0.978 fold | 1.537 fold | 2.067 fold |  |  |  |  |
| GSGLRTMTTQNQQT | 0.594 fold | 0.838 fold | 1.900 fold | 8.939 fold |  |  |  |  |
| GSGLSGITMQNQQT | 0.496 fold | 0.862 fold | 1.792 fold | 14.796 fold |  |  |  |  |
| GSGLSHATQQNQQT | 0.638 fold | 1.111 fold | 2.640 fold | 7.819 fold |  |  |  |  |
| GSGLSHSHQQNQQT | 0.592 fold | 1.256 fold | 2.109 fold | 5.852 fold |  |  |  |  |
| GSGLSVHLAQNQQT | 0.508 fold | 0.806 fold | 2.657 fold | 1.234 fold |  |  |  |  |
| GSGLSVQSGQNQQT | 1.005 fold | 1.695 fold | 2.637 fold | 2.929 fold |  |  |  |  |
| GSGLTLSATQNQQT | 0.340 fold | 0.708 fold | 1.901 fold | 0.193 fold |  |  |  |  |
| GSGMIHTTAQNQQT |  |  |  |  | 0.276 fold | 0.678 fold | 1.285 fold | 0.105 fold |
| GSGMIIASMQNQQT | 0.415 fold | 1.135 fold | 1.469 fold | 6.722 fold |  |  |  |  |
| GSGMLTHTLQNQQT | 0.199 fold | 0.496 fold | 2.246 fold | 2.272 fold |  |  |  |  |
| GSGMPASRLQNQQT | 0.372 fold | 0.790 fold | 1.117 fold | 1.689 fold |  |  |  |  |
| GSGMPIRNVQNQQT | 0.631 fold | 0.684 fold | 1.584 fold | 0.138 fold |  |  |  |  |
| GSGMPQSHIQNQQT | 0.334 fold | 0.514 fold | 3.289 fold | 11.609 fold |  |  |  |  |
| GSGMPVILGQNQQT | 0.287 fold | 0.840 fold | 2.005 fold | 0.150 fold |  |  |  |  |
| GSGMRQAGVQNQQT | 0.775 fold | 0.736 fold | 1.032 fold | 0.811 fold |  |  |  |  |
| GSGMSPSTLQNQQT | 0.153 fold | 0.318 fold | 2.216 fold | 3.053 fold |  |  |  |  |
| GSGNMHASRQNQQT |  |  |  |  | 0.687 fold | 0.782 fold | 1.238 fold | 3.878 fold |
| GSGNPHVRNQNQQT | 0.755 fold | 0.732 fold | 1.112 fold | 0.873 fold |  |  |  |  |
